In patent publication US20180193336A1, “SPRAY DRY FORMULATIONS” (Pulmokine, Inc., priority 2013, published 2018):
Several values for one entry are separate records, joined by “and”; a condition that tells them apart may be missing. Equal entries are not always repeated.

How the values were obtained:
[1] = system: PDGFAA stimulated phosphorylation of ERK1 and ERK2; test: PDGFAA stimulated phosphorylation of ERK1 and ERK2 in human fetal lung fibroblasts; assay type: cell-based; conditions: 1 uM; PDGFAA 10 ng/ml
Source text: Data shown are mean±SEM. […] PK10453=structure 2; PK10571=structure 2a. Platelet derived growth factor receptor alpha=PDGFR-alpha=PDGFR-α=PDGF receptor alpha=PDGF alpha receptor. Platelet derived growth factor receptor beta=PDGFR-beta=PDGFRβ=PDGF receptor beta=PDGF beta receptor.

[2] = Pharmacokinetic study, inhaled vs intravenous, lung and plasma levels; assay type: in vivo, rat; conditions: [(AUClung/AUCplasma)respiratory]/[(AUClung/AUCplasma)IV]
Description: PK10453 (Structure 2) was administered intravenously or by inhalation to animals, which were then euthanized at time 0, 10, 20, and 60 min (n=3 each time point). Blood samples were taken by cardiac puncture, and the lungs excised. The lungs were homogenized and PK10453 (Structure 2) extracted with a 1:3 mixture of acetonitrile:methanol. Similarly, plasma was extracted with a 1:3 mixture of acetonitrile:methanol. Drug was assayed by LC MS/MS (PharmOptima Inc., Portage Mich.). First order exponential curves were fit to the data with Excel. AUC was determined with the trapezoidal method of integration.
For the pharmacokinetic study, the concentration of PK10453 (Structure 2) in lung when administered by inhalation was compared to the concentration achieved with IV administration. As described in Moren “Aerosols in medicine: principles, diagnosis, and therapy.” Amsterdam; New York: Elsevier, xx, 429 (1993) and Phalen et al., “Inhalation exposure methodology.” Environ Health Perspect 56:23-34 (1984)), it is possible to estimate the pharmacokinetic advantage of inhalation relative to intravenous administration, Rd, by comparing the AUC of a plot of the drug concentration as a function of time following respiratory and IV administration: […]
The pharmacokinetic data was modeled to a first order exponential curve, and the AUC calculated from the curves (see Table 2). […]

[3] = Fluorescent imaging of lung distribution after inhalation with IR780 tracer; assay type: in vivo, rat; conditions: 2 min inhalation with IR780 tracer
Description: A near IR fluorescent tracer, IR-780, was added to the drug solution in the nebulizer to ensure dried aerosol particles contained both the drug and IR tracer. After a two min exposure, animals were placed under general anesthesia underwent intubation via tracheostomy, and the lungs were excised. OCT/PBS was infused via the pulmonary artery, the lung insufflated with air, and the lungs frozen in the vapor phase of liquid nitrogen. Serial approximate 2 mm sections of lung were imaged on a Licor Odyssey Imager.

[4] = Aerosol particle size of nebulized drug, Anderson cascade impactor; assay type: physicochemical; conditions: 20 mg/ml in 1M tosylic acid, PARI nebulizer
Description: PK10453 (Structure 2) was dissolved at a concentration of 20 mg/ml in 1M tosylic acid. Nebulization was performed with a PARI Nebulizer with an air pressure of 12.5 psi. The aerosol droplets were neutralized by ammonia vapor that was passed into the aerosol air stream. The particles were then dried by flowing through an annular ring of silica bead cartridges prior to reaching the exposure chamber. The 6-port exposure chamber was a nose-only exposure system custom designed and built by Powerscope Inc. (Minneapolis, Minn.). The vacuum flow rate at each port was separately controlled by a flow meter. The aerosol particle size was measured at the exit port of the drying column with an Anderson (Mark II) cascade impactor. The mass median aerodynamic diameter (MMAD) was 2 μm and the associated geometric standard deviation (GSD) was 1.6.

[5] = system: rat MCT+PN model; test: Telemetry of pulmonary artery pressure in rat MCT+PN model; assay type: in vivo; conditions: for PA systolic pressure: separate MCT+PN telemetry study
Description: Pneumonectomy and implantation of a TRM53P telemetry monitor in the pulmonary artery (Telemetry Research, New Zealand and ADInstruments, Colorado) was carried out in rats. Two weeks after MCT, PK10453 (Structure 2) was administered three times daily for 1 week. […] The two groups underwent 4 min exposures of either the vehicle control or PK10453 (Structure 2). Sampling of PA pressure was performed 5 min before each morning dose in ambulatory animals in room air (estimated atmospheric pressure 716 mm Hg based on elevation of animal facility). […] Telemetry data was obtained for 10 min daily before each morning dose for this protocol.

[6] = system: rat MCT+PN model; test: Pulmonary arteriole morphometry and occlusion analysis in rat MCT+PN model; assay type: in vivo
Source text: At the end of the study, the heart and lungs were removed from ventilated animals under general anesthesia. Heparinized saline was infused under pressure through the main pulmonary artery. The right upper lobe was immediately tied off and placed in liquid nitrogen for Western blot and NanoPro 100 assay analysis. The heart was removed, and the RV free wall, interventricular septum and LV free wall dissected and weighed. Buffered formalin (10%) was infused under pressure both through the pulmonary artery and the trachea. Morphometric analysis was performed on H&E stained formalin fixed tissue sectioned at 8 μm. The media area and lumen area of pulmonary arterioles were measured with Image J software by a technician blinded to treatment group. Measurements were made on 20 pulmonary arterioles per section. The ratio of the lumen area to the total media area was determined. This ratio normalizes the variation in total pulmonary arteriole area. In addition, occlusive analysis was performed in the monocrotaline plus pneumonectomy study (specifically efficacy study 5) according to the method of Homma et al., “Involvement of RhoA/Rho kinase signaling in protection against monocrotaline-induced pulmonary hypertension in pneumonectomized rats by dehydroepiandrosterone.” Am J Physiol Lung Cell Mol Physiol. Vol. 295:L71-8 (2008). Briefly, pre-capillary arterioles were assigned grade 0 for no evidence of neointimal lesions, grade 1 for less than 50% luminal occlusion, and grade 2 for greater than 50% occlusion. Masson Trichrome stains were performed on lung sections from the MCT+PN model.

[7] = system: phosphorylated AKT, STAT3 and ERK1/2 in lung extracts; test: NanoPro immunoassay of lung extracts, rat MCT+PN model; assay type: in vivo
Description: Relative differences in phosphorylated ERK1/2 and STAT isoforms were measured with a anoProlOO® immunoassay system (Protein Simple/Cell Biosciences, CA). See Fan et al., “Nanofluidic proteomic assay for serial analysis of oncoprotein activation in clinical specimens.” Nat Med 15:566-571 (2009).

[8] = system: rat monocrotaline plus pneumonectomy model; test: Trichrome stain of lung sections, rat monocrotaline plus pneumonectomy model; assay type: in vivo; conditions: inhaled; compared to vehicle treated animal; FIG. 42
Source text: At the end of the study, the heart and lungs were removed from ventilated animals under general anesthesia. Heparinized saline was infused under pressure through the main pulmonary artery. The right upper lobe was immediately tied off and placed in liquid nitrogen for Western blot and NanoPro 100 assay analysis. The heart was removed, and the RV free wall, interventricular septum and LV free wall dissected and weighed. Buffered formalin (10%) was infused under pressure both through the pulmonary artery and the trachea. Morphometric analysis was performed on H&E stained formalin fixed tissue sectioned at 8 μm. The media area and lumen area of pulmonary arterioles were measured with Image J software by a technician blinded to treatment group. Measurements were made on 20 pulmonary arterioles per section. The ratio of the lumen area to the total media area was determined. This ratio normalizes the variation in total pulmonary arteriole area. In addition, occlusive analysis was performed in the monocrotaline plus pneumonectomy study (specifically efficacy study 5) according to the method of Homma et al., “Involvement of RhoA/Rho kinase signaling in protection against monocrotaline-induced pulmonary hypertension in pneumonectomized rats by dehydroepiandrosterone.” Am J Physiol Lung Cell Mol Physiol. Vol. 295:L71-8 (2008). […]

COc1cc(-c2cncc(N[C@@H](C)c3cccc(NC(=O)c4cncc(C)c4)c3)n2)ccc1O [PK10453, (S)—N-(3-(1-((6-(4-hydroxy-β-methoxyphenyl)pyrazin-2yl)amino)ethyl)phenyl)-5-methylnicotinamide]
decrease of PDGF AA stimulated ppERK1 and ppERK2 formation [1]: equally effective
Rd, pharmacokinetic advantage of inhalation relative to intravenous administration [2]: 44.6 fold and 45 fold and 44.58 fold
spatial distribution in lung after inhalation [3]: well distributed throughout the lungs
mass median aerodynamic diameter (MMAD) of dried nebulized aerosol [4]: 2 μm
efficacy by inhalation in the MCT+PN model ([5]; rat MCT+PN): effective in lowering pulmonary pressures
PA systolic pressure ([5]; after five days of treatment): 47.2±3.0 mm Hg
PA systolic pressure ([5]; treatment day 9): 50.5±7 mm Hg
Grade 2 occlusion lesions ([6]; D4): 28.5±4.2%
lumen area to media area ratio (L/M) ([6]; D4, FIG. 7 PANEL C): 0.33±0.06
Grade 2 occlusion lesions ([6]; D8): 11.4±4.1%
lumen area to media area ratio (L/M) ([6]; D8, FIG. 7 PANEL C): 0.72±0.05
lumen area to media area ratio (L/M) ([6]; higher dose D8, FIG. 9): 1.17±0.07
lumen area to media area ratio (L/M) ([6]; lower dose D4, FIG. 9): 0.75±0.14
pAKT(Ser473)/AKT ratio in lung extracts [7]: significant reduction
pERK1/ERK1 in lung homogenates ([7]; D4 and D8 compared to vehicle): significant reductions
pSTAT3/STAT3 ratio in lung ([7]; D4 and D8 compared to vehicle): significant reduction
ppERK1/ERK1 in lung homogenates ([7]; D4 and D8 compared to vehicle): significant reductions
pAKT(Thr308)/AKT ratio in lung extracts ([7]; V, D4, D8): not significantly different
collagen deposition in lung sections (trichrome stain) [8]: less collagen deposition
